According to US8765730B2 (Hoffmann-La Roche Inc, priority 2010, dated 2014):

Target: T1, human GPBAR1 receptor (Homo sapiens, UniProt Q8TDU6)
T1 construct: expressed in transfected cells
T1 sequence (Q8TDU6 1-330): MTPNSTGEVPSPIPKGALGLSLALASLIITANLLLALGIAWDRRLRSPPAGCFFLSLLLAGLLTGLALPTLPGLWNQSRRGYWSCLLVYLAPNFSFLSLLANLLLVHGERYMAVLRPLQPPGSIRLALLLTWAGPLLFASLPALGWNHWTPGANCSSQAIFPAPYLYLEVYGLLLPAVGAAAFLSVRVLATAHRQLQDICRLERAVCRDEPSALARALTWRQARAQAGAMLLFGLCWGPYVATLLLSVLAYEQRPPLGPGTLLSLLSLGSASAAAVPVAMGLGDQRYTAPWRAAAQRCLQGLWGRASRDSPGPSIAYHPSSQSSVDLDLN
Assay: functional cAMP assay in CHO-dhfr(minus) cells expressing human GPBAR1 receptors
Assay type: cell-based
Conditions: human EC50, functional cAMP assay, 30 min at 30° C.
Outline: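 Agonist cAMP read-out: stable GPBAR1 CHO-dhfr− clone, 30 min compound exposure at 30° C following 30 min IBMX (1 mM) preincubation in Krebs Ringer bicarbonate. Time-resolved energy-transfer detection gives EC50; parental CHO cells serve as counter-screen.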

| Structure (SMILES) | EC50 [nM] |
| --- | --- |
| Cn1cc(/C(CC(c2ccc(-c3ccc(C(=O)O)cc3)cc2)c2ccc(F)cc2Cl)=N/O)ccc1=O (stereo not drawn) [Example 412, (E)-4′-(1-(2-chloro-4-fluorophenyl)-3-(hydroxyimino)-3-(1-methyl-6-oxo-1,6-dihydropyridin-3-yl)propyl)biphenyl-4-carboxylic acid] | 30 |
| Cc1cc(/C(C[C@H](c2ccc(-c3nnc(C)o3)cc2)c2ccccc2C)=N/O)ccn1 [Example 417, ((−), E)-3-[4-(5-Methyl-[1,3,4]oxadiazol-2-yl)-phenyl]-1-(2-methyl-pyridin-4-yl)-3-o-tolyl-propan-1-one oxime] | 8 |
| Cc1cc(/C(C[C@H](c2ccc(-c3nnc(C4CC4)o3)cc2)c2ccccc2C)=N/O)ccn1 [Example 418, ((−), E)-3-(4-(5-Cyclopropyl-1,3,4-oxadiazol-2-yl)phenyl)-1-(2-methylpyridin-4-yl)-3-o-tolylpropan-1-one oxime] | 4 |
| COCc1nnc(-c2ccc([C@@H](C/C(=N\O)c3ccnc(C)c3)c3ccccc3C)cc2)o1 [Example 419, ((−), E)-3-[4-(5-Methoxymethyl-[1,3,4]oxadiazol-2-yl)-phenyl]-1-(2-methyl-pyridin-4-yl)-3-o-tolyl-propan-1-one oxime] | 8 |
| COCCc1nnc(-c2ccc([C@@H](C/C(=N\O)c3ccnc(C)c3)c3ccccc3C)cc2)o1 [Example 420, ((−), E)-3-{4-[5-(2-Methoxy-ethyl)[1,3,4]oxadiazol-2-yl]-phenyl}-1-(2-methyl-pyridin-4-yl)-3-o-tolyl-propan-1-one oxime] | 15 |
| Cc1cc(/C(C[C@H](c2ccc(-c3nnc(C4CCOCC4)o3)cc2)c2ccccc2C)=N/O)ccn1 [Example 421, ((−), E)-1-(2-Methyl-pyridin-4-yl)-3-{4-[5-(tetrahydro-pyran-4-yl)-[1,3,4]oxadiazol-2-yl]-phenyl}-3-o-tolyl-propan-1-one oxime] | 30 |
| Cc1cc(/C(C[C@H](c2ccc(-c3ncco3)cc2)c2ccccc2C)=N/O)ccn1 [Example 423] | 2 |
| Cc1cc(/C(C[C@H](c2ccc(-c3cn(C)nn3)cc2)c2ccccc2C)=N/O)ccn1 [Example 424, (−)-1-(2-Methyl-pyridin-4-yl)-3-[4-(1-methyl-1H-[1,2,3]triazol-4-yl)-phenyl]-3-o-tolyl-propan-1-one oxime] | 1 |
| Cc1cc(/C(CC(c2ccc(C(=O)O)cc2)c2ccc(F)cc2F)=N/O)ccn1 (stereo not drawn) [Example 431, 4-[1-(2,4-Difluoro-phenyl)-3-[(E)-hydroxyimino]-3-(2-methyl-pyridin-4-yl)-propyl]-benzoic acid] | 465 |
| Cc1cc(/C(CC(c2ccc(C(=O)NC3CC3)cc2)c2ccc(F)cc2F)=N/O)ccn1 (stereo not drawn) [Example 432, N-Cyclopropyl-4-[1-(2,4-difluoro-phenyl)-3-[(E)-hydroxyimino]-3-(2-methyl-pyridin-4-yl)-propyl]-benzamide] | 57 |
| Cc1cc(/C(CC(c2ccc(C(=O)NCCO)cc2)c2ccc(F)cc2F)=N/O)ccn1 (stereo not drawn) [Example 433, 4-[1-(2,4-Difluoro-phenyl)-3-[(E)-hydroxyimino]-3-(2-methyl-pyridin-4-yl)-propyl]-N-(2-hydroxy-ethyl)-benzamide] | 55 |
| Cc1cc(/C(CC(c2ccc(C(=O)NC[C@@H](C)O)cc2)c2ccc(F)cc2F)=N/O)ccn1 (stereo partly drawn) [Example 434, 4-[1-(2,4-Difluoro-phenyl)-3-[(E)-hydroxyimino]-3-(2-methyl-pyridin-4-yl)-propyl]-N—((R)-2-hydroxy-propyl)-benzamide] | 49 |
| Cc1cc(/C(CC(c2ccc(C(=O)NC(C)(C)CO)cc2)c2ccc(F)cc2F)=N/O)ccn1 (stereo not drawn) [Example 435, 4-[1-(2,4-Difluoro-phenyl)-3-[(E)-hydroxyimino]-3-(2-methyl-pyridin-4-yl)-propyl]-N-(2-hydroxy-1,1-dimethyl-ethyl)-benzamide] | 66 |
| Cc1cc(/C(CC(c2ccc(C(=O)NC3CCCCC3)cc2)c2ccc(F)cc2F)=N/O)ccn1 (stereo not drawn) [Example 436, N-Cyclohexyl-4-[1-(2,4-difluoro-phenyl)-3-[(E)-hydroxyimino]-3-(2-methyl-pyridin-4-yl)-propyl]-benzamide] | 62 |
| Cc1cc(/C(CC(c2ccc(C(=O)N3CCC(F)(F)CC3)cc2)c2ccc(F)cc2F)=N/O)ccn1 (stereo not drawn) [Example 437, 3-(2,4-Difluoro-phenyl)-3-[4-(4,4-difluoro-piperidine-1-carbonyl)-phenyl]-1-(2-methyl-pyridin-4-yl)-propan-1-one oxime] | 75 |
| Cc1cc(/C(CC(c2ccc(C(=O)N3CCOCC3)cc2)c2ccc(F)cc2F)=N/O)ccn1 (stereo not drawn) [Example 438, 3-(2,4-Difluoro-phenyl)-1-(2-methyl-pyridin-4-yl)-3-[4-(morpholine-4-carbonyl)-phenyl]-propan-1-one oxime] | 132 |
| Cc1cc(/C(CC(c2ccc(C(=O)N3CCN(S(C)(=O)=O)CC3)cc2)c2ccc(F)cc2F)=N/O)ccn1 (stereo not drawn) [Example 439, 3-(2,4-Difluoro-phenyl)-3-[4-(4-methanesulfonyl-piperazine-1-carbonyl)-phenyl]-1-(2-methyl-pyridin-4-yl)-propan-1-one oxime] | 81 |
| Cc1cc(/C(CC(c2ccc(C(=O)NC3CCS(=O)(=O)CC3)cc2)c2ccc(F)cc2F)=N/O)ccn1 (stereo not drawn) [Example 440, 4-[1-(2,4-Difluoro-phenyl)-3-[(E)-hydroxyimino]-3-(2-methyl-pyridin-4-yl)-propyl]-N-(1,1-dioxo-hexahydro-1λ^6-thiopyran-4-yl)-benzamide] | 148 |
| Cc1cc(/C(CC(c2ccc(C(=O)NCCN3CCS(=O)(=O)CC3)cc2)c2ccc(F)cc2F)=N/O)ccn1 (stereo not drawn) [Example 441, 4-[1-(2,4-Difluoro-phenyl)-3-[(E)-hydroxyimino]-3-(2-methyl-pyridin-4-yl)-propyl]-N-[2-(1,1-dioxo-1λ^6-thiomorpholin-4-yl)-ethyl]-benzamide] | 39 |
| Cc1cc(/C(CC(c2ccc(C(F)(F)F)cc2)c2ccc(F)cc2F)=N/O)ccn1 (stereo not drawn) [Example 442, 3-(2,4-Difluoro-phenyl)-1-(2-methyl-pyridin-4-yl)-3-(4-trifluoromethyl-phenyl)-propan-1-one oxime] | 109 |
| Cc1cc(/C(CC(c2ccc(N3CCOCC3)nc2)c2ccc(F)cc2F)=N/O)ccn1 (stereo not drawn) [Example 443, 3-(2,4-Difluoro-phenyl)-1-(2-methyl-pyridin-4-yl)-3-(6-morpholin-4-yl-pyridin-3-yl)-propan-1-one oxime] | 98 |
| CC(=O)N1CCN(c2ccc(C(CC(=NO)c3ccnc(C)c3)c3ccc(F)cc3F)cn2)CC1 (stereo not drawn) [Example 444, 3-[6-(4-Acetyl-piperazin-1-yl)-pyridin-3-yl]-3-(2,4-difluoro-phenyl)-1-(2-methyl-pyridin-4-yl)-propan-1-one oxime] | 103 |
| Cc1cc(/C(CC(c2ccc(Br)cc2)c2cc(F)cc(F)c2)=N/O)ccn1 (stereo not drawn) [Example 445, 3-(4-Bromo-phenyl)-3-(3,5-difluoro-phenyl)-1-(2-methyl-pyridin-4-yl)-propan-1-one oxime] | 27 |
| COC(=O)c1ccc(-c2ccc(C(C/C(=N\O)c3ccnc(C)c3)c3ccc(Cl)cc3F)cc2)cc1F (stereo not drawn) [Example 446, 4′-[1-(4-Chloro-2-fluoro-phenyl)-3-[(E)-hydroxyimino]-3-(2-methyl-pyridin-4-yl)-propyl]-3-fluoro-biphenyl-4-carboxylic acid methyl ester] | 59 |
| Cc1cc(/C(CC(c2ccc(-c3ccc(C(=O)O)c(F)c3)cc2)c2ccc(Cl)cc2F)=N/O)ccn1 (stereo not drawn) [Example 447, 4′-[1-(4-Chloro-2-fluoro-phenyl)-3-[(E)-hydroxyimino]-3-(2-methyl-pyridin-4-yl)-propyl]-3-fluoro-biphenyl-4-carboxylic acid] | 12 |
| COC(=O)c1ccc(-c2ccc(C(C/C(=N\O)c3ccnc(C)c3)c3ccc(Cl)cc3F)cc2)cc1Cl (stereo not drawn) [Example 450, 3-Chloro-4′-[1-(4-chloro-2-fluoro-phenyl)-3-[(E)-hydroxyimino]-3-(2-methyl-pyridin-4-yl)-propyl]-biphenyl-4-carboxylic acid methyl ester] | 416 |
| Cc1cc(/C(CC(c2ccc(-c3ccc(C(=O)O)c(Cl)c3)cc2)c2ccc(Cl)cc2F)=N/O)ccn1 (stereo not drawn) [Example 451, 3-Chloro-4′-[1-(4-chloro-2-fluoro-phenyl)-3-[(E)-hydroxyimino]-3-(2-methyl-pyridin-4-yl)-propyl]-biphenyl-4-carboxylic acid] | 24 |
| Cc1cc(/C(C[C@H](c2ccc(-c3ccc(C(=O)O)c(Cl)c3)cc2)c2ccc(Cl)cc2F)=N/O)ccn1 [Example 452, (−)-3-Chloro-4′-[1-(4-chloro-2-fluoro-phenyl)-3-[(E)-hydroxyimino]-3-(2-methyl-pyridin-4-yl)-propyl]-biphenyl-4-carboxylic acid] | 15 |
| COC(=O)c1ccc(-c2ccc(C(C/C(=N\O)c3ccnc(C)c3)c3ccc(Cl)cc3F)cc2)cc1OC (stereo not drawn) [Example 454, 4′-[1-(4-Chloro-2-fluoro-phenyl)-3-[(E)-hydroxyimino]-3-(2-methyl-pyridin-4-yl)-propyl]-3-methoxy-biphenyl-4-carboxylic acid methyl ester] | 270 |
| COc1cc(-c2ccc(C(C/C(=N\O)c3ccnc(C)c3)c3ccc(Cl)cc3F)cc2)ccc1C(=O)O (stereo not drawn) [Example 455, 4′-[1-(4-Chloro-2-fluoro-phenyl)-3-[(E)-hydroxyimino]-3-(2-methyl-pyridin-4-yl)-propyl]-3-methoxy-biphenyl-4-carboxylic acid] | 12 |
